We go through 24 molecules from patent US20060106102A1, “Napththalene derivatives which inhibit the cytokine or biological activity of microphage migration inhibitory factor (mif)” (priority 2002, published 2006).

Assay [1] deals with recombinant human macrophage migration inhibitory factor (MIF)-induced proliferation of S112 human dermal fibroblasts. In words: MIF-induced proliferation of S112 human dermal fibroblasts, 3H-thymidine incorporation. The format is cell-based. On the procedure:
The activity of each compound was studied in a bioassay utilising MIF-induced proliferation of human dermal fibroblasts. S112 human dermal fibroblasts were propagated in RPMI/10% foetal calf serum (FCS). Prior to experimentation, cells were seeded at 10^5 cells/ml in RPMI/0.1% BSA for 18 hours. At time point zero, culture medium was replaced with RPMI/10% FCS and treatments administered. Cells were treated with recombinant human macrophage migration inhibitory factor (MIF) 50 ng/ml (1.353×10^−9 M) and/or the compound at a 1 or 1000 molar ratio to the concentration of MIF. In some experiments the compound was combined with MIF at time point −30 minutes, prior to adding at time point zero. At time point 30 hours, cells were pulsed with […]. At time point 48 hours, cells were harvested using a semi-automated cell harvester. The radioactivity incorporated into DNA was determined by liquid scintillation counting, with results expressed as [^3H] thymidine incorporation. The proliferation of untreated cells was expressed as 100% and the effect of MIF and each compound expressed in relative %.
The activity of compound 5 was studied in a bioassay utilising MIF-induced proliferation of human dermal fibroblasts. S112 human dermal fibroblasts were propagated in RPMI/10% foetal calf serum (FCS). Prior to experimentation, cells were seeded at 10^5 cells/ml in RPMII/0.1% BSA for 18 hours. At time point zero, culture medium was replaced with RPMI/10% FCS and treatments administered. Cells were treated with recombinant human macrophage migration inhibitory factor (MIF) 50 ng/ml and/or compound 5 at a 1-1000 molar ratio to the concentration of MIF. At a time point 30 hours later, cells were pulsed with 1 μCi/well of ^3H-thymidine. At a time point 48 hours after commencement of the experiment, cells were harvested using a semi-automated cell harvester. The radioactivity incorporated into DNA was determined by liquid scintillation counting, with results expressed as [^3H] thymidine incorporation.
(In general: Uptake of a labelled nucleoside into DNA is a usual measure of proliferation.)

The test system of assay [2] is antigen-specific T cell activation (splenic T lymphocytes from mBSA-immunised mice). In words: antigen-specific (mBSA) activation of splenic T lymphocytes in vitro, 3H-thymidine incorporation. The format is cell-based, C57BL6/J mice. On the procedure:
After a further seven (7) days mice were killed and spleens collected aseptically into Hanks buffered saline solution (HBSS). A single cell suspension was prepared in Petri dishes by flushing DMEM through the organ using a 26G needle and 2 mL syringe. The resulting cell suspension was centrifuged for 5-7 minutes and supernatant discarded. Erythrocytes were lysed using a solution containing 0.579% NH4Cl, 0.000037% EDTA, and 0.1% NaHCO3 in a 37° C. water bath. Tubes were then filled with DMEM and centrifuged for 5-7 minutes. […] The specific stimulating antigen, mBSA, was then added at 10-50 μg/mL and plates incubated for 30 hours in a 37° C., 5% CO2 incubator. Tritiated^3H-thymidine was then added at a concentration of 0.5 μCi/well for a further 18 hours. Cells were harvested on a Packard cell harvester, and the harvested material added to 750 μL/tube scintillation fluid. Scintillation counts were read on a Wallac beta-emnission counter. […] Further compounds were also tested for their ability to inhibit antigen-specific T cell activation as a marker of the inhibition of the cytokine or biological activity of MIF using this assay.

In assay [3] the test system is IL-1-induced COX-2 expression. In words: IL-1-induced COX-2 expression in S112 human dermal fibroblasts (MIF-dependent event), flow cytometry. To be noted: for inhibition at 1 µM: compound 1 uM. The format is cell-based. On the procedure: The activity of each compound was studied in a bioassay utilising MIF-dependent activation of human dermal fibroblasts. […] IL-1-induced COX-2 expression is therefore a MIF-dependent event. […] Prior to experimentation, cells were seeded at 10^5 cells/ml in RPMI/0.1% BSA for 18 hours. […] Cells permeabilised with 0.1% saponin were sequentially labelled with a mouse anti-human COX-2 monoclonal antibody and with sheep-anti-mouse F(ab)2 fragment labelled with fluoroscein isothiocyanate. Cellular fluorescence was determined using a flow cytometer. At least 5000 events were counted for each reading, each of which was performed in duplicate, and the results expressed in mean fluorescence intensity (MFI) after subtraction of negative control-labelled cell fluorescence. The effect of each compound was determined by subtracting the IL-1+compound-treated cell MFI from the IL-1-treated cell MFI and expressed as % inhibition. In each case the % inhibition of IL-1-induced COX2 expression is shown as the mean, or mean±SEM where results are available from multiple experiments.
On the technique in general: A flow cytometer gives signals particle by particle.

Where [4] appears, read: Mus musculus, T-cell, mBSA 10 μg/ml, read-out: EC50 (T cell activation suppressed by 50% compared to vehicle-only-treated cells).
The mark [5] stands for this setting: Mus musculus, T-cell, mBSA 50 μg/ml, read-out: EC50 (T cell activation suppressed by 50% compared to vehicle-only-treated cells).
Setting [6] is: mBSA 10 μg/ml, read-out: EC50 (T cell activation suppressed by 50% compared to vehicle-only-treated cells).
The mark [7] stands for this setting: mBSA 50 μg/ml, read-out: EC50 (T cell activation suppressed by 50% compared to vehicle-only-treated cells).
The mark [8] stands for this setting: Homo sapiens, Fibroblast, IL-1 0.1 ng/ml, 6 hours, S112 cells, read-out: % inhibition of IL-1-induced COX2 expression (Effect).
Setting [9] is: Homo sapiens, Fibroblast, compound 50 uM, IL-1 0.1 ng/ml, 6 hours, S112 cells, read-out: % inhibition of IL-1-induced COX2 expression (Effect).

Structures are written as SMILES. Counter-ions that a name gives are not always drawn. Like-named read-outs stand apart in the source and are kept apart here.

On to `Oc1cc2ccccc2cc1O` [Compound 1, 6,7-dihydroxynaphthalene], for which the inhibition at 0.13 µM in assay [1] (Homo sapiens, Fibroblast, concentration 0.13 μM, rhMIF 50 ng/ml, S112 cells, read-out: % inhibition of proliferation compared to vehicle plus rhMIF-treated cells) turned out to be 47%.
For `O=C(O)c1ccc2c(S(=O)(=O)O)c(O)ccc2c1` [Compound 5, 2-carboxy-6-hydroxynaphthalene-5-sulfonic acid], the “effect on MIF-induced proliferation of human dermal fibroblasts (FIGS. 1 and 2)” value in assay [1] (1M ratio equivalent to MIF 50 ng/ml) is recorded as “inhibition of MIF-induced proliferation”. Moreover, the EC50 in assay [2] (setting [4]) is 2.39 µM; in assay [2] (setting [5]) it was more than 100 µM.
Take `COc1ccc2cc([C@H](C)C(=O)O)ccc2c1` [Compound 8, S-(+)-6-methoxy-α-methyl-2-naphthalene acetic acid]: the “% inhibition of proliferation compared to vehicle plus rhMIF-treated cells” value in assay [1] (concentration 0.013 μM, rhMIF 50 ng/ml, S112 cells) is 4%; in assay [1] (concentration 0.13 μM, rhMIF 50 ng/ml, S112 cells) it was 36%. Besides, the EC50 in assay [2] (setting [6]) is 57.7 µM; in assay [2] (setting [7]), more than 100 µM.
As for `O=C(O)c1ccc2cc(O)ccc2c1` [Compound 9, 6-hydroxy-2-naphthanoic acid], the EC50 in assay [2] (setting [4]) came to 72.2 µM; in assay [2] (setting [5]), 87.7 µM. In addition, the inhibition at 1 µM in assay [3] (setting [8]) worked out at 7.5%.
On to `CCCCCOS(=O)(=O)c1ccc2cc(O)c(O)cc2c1` [Compound 10, Pentyl 6,7-dihydroxy-2-naphthalenesulfonate], for which the EC50 in assay [2] (setting [4]) was 10 µM; in assay [2] (setting [5]), 16.7 µM. In assay [3] (setting [9]), the inhibition at 50 µM was 27.7%.
Turning to `CNc1ccc2cc(S(=O)(=O)O)ccc2c1` [Compound 11, 6-methylamino-2-naphthalene sulphonic acid, sodium salt], the EC50 in assay [2] (Mus musculus, T-cell, read-out: EC50 (T cell activation suppressed by 50% compared to vehicle-only-treated cells), mBSA 10 μg/ml) was found to be 0.02 µM; in assay [2] (Mus musculus, T-cell, read-out: EC50 (T cell activation suppressed by 50% compared to vehicle-only-treated cells), mBSA 50 μg/ml) it was 3.34 µM. Also, the inhibition at 25 µM in assay [3] (Homo sapiens, Fibroblast, 6 h, read-out: % inhibition of IL-1-induced COX2 expression (Effect)) came out at 13.6%.
With `O=C(O)c1ccc2cc3c(cc2c1)OCCO3` [Compound 14, 2,3-dihydronaphtho[2,3-b][1,4]dioxine-7-carboxylic acid], the EC50 was found to be 10.2 µM in assay [2] (setting [4]) and 0.12 µM in assay [2] (setting [5]). Moreover, the inhibition at 50 µM in assay [3] (setting [9]) came out at 24.1%.
`COC(=O)c1ccc2cc(O)ccc2c1` [Compound 15, Methlyl-6-hydroxy-2-naphthoate]: the values for the EC50 in assay [2] (setting [4]) and in assay [2] (setting [5]) were 51.7 µM and 21.5 µM, respectively. For the same molecule, the inhibition at 1 µM in assay [3] (setting [8]) was determined as 17.3%.
As to `CCCCCCCCCCCCCCCCCCCCOC(=O)c1ccc2cc(O)ccc2c1` [Compound 19], the figures for the EC50 in assay [2] (setting [4]) and in assay [2] (setting [5]) were 10.8 µM and 0.95 µM, respectively. In addition, in assay [3] (Homo sapiens, Fibroblast, compound 10 uM, IL-1 0.1 ng/ml, 6 hours, S112 cells, read-out: % inhibition of IL-1-induced COX2 expression (Effect)), the inhibition at 10 µM turned out to be 7.7%.
In the case of `O=C(O)CCCCCOC(=O)c1ccc2cc(O)ccc2c1` [Compound 22], the figures for the EC50 in assay [2] (setting [4]) and in assay [2] (setting [5]) were 3.5 µM and more than 100 µM, respectively. In assay [3] (setting [9]), the inhibition at 50 µM is 11.6%.
On to `CCOC(=O)c1ccc2cc(O)ccc2c1O` [Compound 28, Ethyl 1,6-dihydroxy-2-naphthaote], for which the figures for the EC50 in assay [2] (setting [4]) and in assay [2] (setting [5]) were 6.4 µM and 1.18 µM, respectively. In assay [3] (Homo sapiens, Fibroblast, compound 25 uM, IL-1 0.1 ng/ml, 6 hours, S112 cells, read-out: % inhibition of IL-1-induced COX2 expression (Effect)), the inhibition at 25 µM was 7.8%.
Turning to `CCOC(=O)c1ccc2cc(SC(=O)N(C)C)ccc2c1OC` [Compound 33, Ethyl-6-[(dimethylamino)carbonyl]sulfanyl-1-methoxy-2-naphthoate], the EC50 in assay [2] (setting [4]) came out at 12.5 µM; in assay [2] (setting [5]), 0.54 µM. The inhibition at 50 µM in assay [3] (setting [9]) was found to be 5.3%.
With `COC(=O)c1cc2cc(OC)ccc2cc1O` [Compound 35, methyl 2-hydroxy-6-methoxy-3-naphthoate], the EC50 was 8.89 µM in assay [2] (setting [4]) and 0.22 µM in assay [2] (setting [5]).
On to `COc1ccc2cc(C)c(C(=O)O)cc2c1` [Compound 39, 7-methoxy-3-methyl-2-naphthoic acid: 2-amino-2-methylpropan-1-ol salt], for which the EC50 in assay [2] (setting [4]) turned out to be 49.3 µM; in assay [2] (setting [5]), 89.8 µM. The inhibition at 50 µM in assay [3] (setting [9]) was 13.3%.
The corresponding values for `COc1ccc2cc(C)c(C(=O)O)cc2c1Br` [Compound 40, 5-bromo-6-methoxy-2-methyl-3-naphthaoic acid] are 2.57 µM, 8.9 µM and 8.5%.
With `CCCCCNCc1cc2ccc(O)cc2cc1C(=O)O` [Compound 43, 6-hydroxy-[2-(1-pentylamino)methyl]-3-naphthoic acid], the EC50 is 1.85 µM in assay [2] (setting [6]) and 41.5 µM in assay [2] (setting [7]). Further, the “% inhibition of IL-1-induced COX2 expression (Effect)” value in assay [3] (compound 50 uM, IL-1 0.1 ng/ml, 6 hours, S112 cells) came to 24.10%.
Consider `COC(=O)c1ccc2ccc(OC)cc2c1` [Compound 44, Methyl 7-methoxy-2-naphthoate ester], for which the results for the EC50 in assay [2] (setting [4]) and in assay [2] (setting [5]) were 12.7 µM and more than 100 µM, respectively. Moreover, in assay [3] (setting [9]), the inhibition at 50 µM is 9.8%.
For `COC(=O)c1ccc2ccc(O)cc2c1` [Compound 45, Methyl 7-hydroxy-2-naphanoate ester], the results for the EC50 in assay [2] (setting [4]) and in assay [2] (setting [5]) were 14.8 µM and 32.4 µM, respectively.
For `COC(=O)c1ccc2ccc(O)c([N+](=O)[O-])c2c1` [Compound 46, Methyl 7-hydroxy-8-nitro-2-naphthoate ester], the EC50 in assay [2] (setting [5]) was determined as 28.1 µM. In addition, in assay [3] (setting [9]), the inhibition at 50 µM is 9.3%.
As for `COC(=O)c1ccc2c([N+](=O)[O-])c(O)ccc2c1` [Compound 47, Methyl 6-hydroxy-5-nitro-2-naphthoate ester], the results for the EC50 in assay [2] (setting [4]) and in assay [2] (setting [5]) were 13.1 µM and more than 100 µM, respectively.
`COC(=O)c1ccc2c(N)c(OC)ccc2c1` [Compound 49, Methyl 5-amino-6-methoxy-2-naphthoate ester]: the EC50 was determined as 1.01 µM in assay [2] (setting [4]) and 11.9 µM in assay [2] (setting [5]).
With `COc1ccc2cc(C(CCCCCO)C(=O)O)ccc2c1` (stereo not shown) [Compound 58, 7-hydroxy-2-(6-methoxy-2-naphthyl)heptanoic acid], the EC50 in assay [2] (setting [5]) was 22.3 µM.
Turning to `COC(=O)c1ccc2cc(OC)cc(C)c2c1` [Compound 65, Methyl 6-methoxy-8-methyl-2-napthoate ester], the EC50 in assay [2] (setting [5]) came out at 18 µM. Further, the inhibition at 50 µM in assay [3] (setting [9]) came to 50.4%.
As to `C[C@@H]1C[C@H]2[C@@H]3CCC4=CC(=O)C=C[C@]4(C)[C@@]3(F)[C@@H](O)C[C@]2(C)[C@@]1(O)C(=O)CO` [dexamethasone, reference compound], the “% inhibition (IL-1 induced COX-2 expression)” value in assay [3] (Table 2 experiment 2: dexamethasone alone, 10^−9 M) worked out at 63.8%.
